Experimental data published in ChEMBL document CHEMBL1201862, “PubChem BioAssay data set” (2004).
The source made the active and inactive calls.

Legend:
[1] = A Cell Based Secondary Assay To Explore Cytotoxicity of Compounds that Sensitize Mycobacterium Tuberculosis to Beta-Lactam Antibiotics.; assay type: functional
[2] = Luminescence Cell-Based Dose Retest to Confirm Inhibitors of Cancer Stem Cells. [Related pubchem assays (depositor defined):AID2717, AID2721]; assay type: functional; settings: Homo sapiens
[3] = molecular target: Heat shock protein HSP 90-alpha (Homo sapiens, UniProt P07900); assay type: functional, organism-based
Large T antigen = Large T antigen (Simian virus 40, UniProt P03070); assay type: functional, Betapolyomavirus macacae;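 note: Confirmatory-stage PubChem screen for compounds that inhibit SV40 T antigen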
[4] = viability inhibitors of stage V gametocytes – luminescence, dose response (AID 1117278); assay type: functional, cell-based;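 note: gametocytes exposed to compound for 24 hours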
[5] = viability loss in human Jurkat cells – cell-based, luminescence, cytotoxicity control for P. falciparum gametocyte viability project, dose response (AID 1117277); assay type: functional;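 note: potency reflects loss of cellular ATP meaning fewer viable cells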
[6] = A549 cell cytotoxicity, dose response, cytotoxicity control, plate reader, cherry-pick, antagonist series (AID 743412); assay type: functional, cell-based
[7] = toxicity toward HepG2 liver cells – cell-based, plate reader, cherry-pick, antagonist series, cytotoxicity control, dose response (AID 743416); assay type: functional
[8] = blockers of bursicon-stimulated LGR2 cAMP reporter – cell-based, HEK293, CRE-luciferase reporter, cherry pick, set 2, dose response (AID 743343); assay type: functional;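 note: transfected cells were stimulated with diluted bursicon conditioned medium after compound addition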
[9] = blockade of melanocortin 4 receptor signaling – cell-based, plate reader, cherry pick, counter-screen for LGR2 antagonist project, dose response (AID 743444); assay type: functional;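 note: transfected HEK 293 cells stimulated with alpha-MSH peptide; potency of inhibitors of the alpha-MSH evoked signal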
[10] = viability loss in HEK293 cells – cell-based, plate reader, cherry-picked samples, cytotoxicity control, dose response (AID 743446); assay type: functional
[11] = molecular target: T1, Calpain-2 catalytic subunit (Sus scrofa, UniProt P43367); assay: m-calpain protease blockers, concentration series – biochemical, fluorogenic peptide substrate, dose response (AID 1420); assay type: functional
T1 sequence (P43367 whole entry): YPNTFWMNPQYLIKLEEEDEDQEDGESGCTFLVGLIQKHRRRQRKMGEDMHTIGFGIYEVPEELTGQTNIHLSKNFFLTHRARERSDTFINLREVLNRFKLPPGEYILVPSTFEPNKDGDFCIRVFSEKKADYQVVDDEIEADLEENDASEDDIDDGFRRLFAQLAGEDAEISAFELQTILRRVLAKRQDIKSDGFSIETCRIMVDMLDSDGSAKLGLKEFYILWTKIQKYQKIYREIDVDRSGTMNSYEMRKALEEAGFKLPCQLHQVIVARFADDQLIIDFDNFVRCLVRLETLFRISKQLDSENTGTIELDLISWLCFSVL

[12] = viability loss in HeLa cells – cytotoxicity control for MgcRacGAP inhibitor project, dose response (AID 624300); assay type: functional
[13] = molecular target: T2, Rac GTPase-activating protein 1 (Homo sapiens, UniProt Q9H0H5); assay: blockers of MgcRacGAP-driven Rac1 GTP hydrolysis – biochemical, ADP Hunter fluorescence, primary and confirmatory, confirmation (AID 624330); assay type: functional
T2 sequence (Q9H0H5 whole entry): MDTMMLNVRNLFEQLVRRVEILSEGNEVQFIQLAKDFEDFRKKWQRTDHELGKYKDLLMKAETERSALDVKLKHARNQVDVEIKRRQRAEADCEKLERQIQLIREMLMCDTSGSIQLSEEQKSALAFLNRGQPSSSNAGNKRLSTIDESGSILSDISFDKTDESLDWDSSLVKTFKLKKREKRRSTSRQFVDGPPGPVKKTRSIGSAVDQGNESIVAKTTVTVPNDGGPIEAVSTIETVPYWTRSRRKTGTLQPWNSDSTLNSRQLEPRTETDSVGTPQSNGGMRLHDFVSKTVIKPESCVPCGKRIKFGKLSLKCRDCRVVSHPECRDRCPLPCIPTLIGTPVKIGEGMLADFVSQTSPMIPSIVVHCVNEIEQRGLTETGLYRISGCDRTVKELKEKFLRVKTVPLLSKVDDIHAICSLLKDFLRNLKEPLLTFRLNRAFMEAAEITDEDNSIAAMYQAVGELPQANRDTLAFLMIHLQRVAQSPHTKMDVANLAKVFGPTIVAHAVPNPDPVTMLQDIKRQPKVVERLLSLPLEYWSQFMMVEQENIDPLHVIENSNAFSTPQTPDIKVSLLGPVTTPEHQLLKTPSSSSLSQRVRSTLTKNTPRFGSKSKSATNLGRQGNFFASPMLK

H9c2 = assay: cells; assay type: functional, cell-based; settings: Rattus norvegicus, H9c2, Myocardium;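 note: confirmatory concentration-response retest of ultra-high-throughput screening hits for modulation of myocardial damage; cell death induced by hydrogen peroxide oxidative stress; compound pretreatment for 60 min then peroxide exposure for 2 h; potency is for protecting the cells against peroxide damage rather than for killing them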
[14] = molecular target: T3, Corticotropin-releasing factor receptor 2/Corticotropin-releasing factor-binding protein (Homo sapiens, UniProt P24387+Q13324); assay: activators of CRF receptor 2 with binding protein – uHTS hits, confirmation (AID 602473); assay type: functional; settings: read-out: EC50_Mean
T3 sequence (Q13324 whole entry): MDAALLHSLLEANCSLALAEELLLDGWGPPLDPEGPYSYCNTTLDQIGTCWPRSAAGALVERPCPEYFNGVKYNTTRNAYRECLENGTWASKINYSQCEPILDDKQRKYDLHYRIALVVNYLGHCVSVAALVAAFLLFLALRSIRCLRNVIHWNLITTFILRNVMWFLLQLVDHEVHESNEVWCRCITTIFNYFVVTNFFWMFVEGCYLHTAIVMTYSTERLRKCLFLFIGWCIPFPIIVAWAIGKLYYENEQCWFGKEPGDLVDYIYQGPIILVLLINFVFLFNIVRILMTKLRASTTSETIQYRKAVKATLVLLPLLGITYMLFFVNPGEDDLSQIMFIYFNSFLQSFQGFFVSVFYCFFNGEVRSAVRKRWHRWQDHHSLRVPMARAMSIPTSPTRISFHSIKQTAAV
T3 sequence (P24387 whole entry): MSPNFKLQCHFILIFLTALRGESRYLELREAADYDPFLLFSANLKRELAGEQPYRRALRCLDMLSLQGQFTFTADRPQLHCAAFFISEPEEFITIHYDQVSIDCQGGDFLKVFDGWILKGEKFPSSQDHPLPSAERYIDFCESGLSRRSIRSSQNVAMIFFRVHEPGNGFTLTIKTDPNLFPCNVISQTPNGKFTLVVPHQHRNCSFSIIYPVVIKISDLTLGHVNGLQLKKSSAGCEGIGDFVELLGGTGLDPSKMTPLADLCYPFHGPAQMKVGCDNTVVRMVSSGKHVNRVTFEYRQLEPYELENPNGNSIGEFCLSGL

Aminopeptidase N = molecular target: T4, Aminopeptidase N (Plasmodium falciparum FcB1/Columbia, UniProt O96935); assay: malaria alanyl aminopeptidase activity blockers – biochemical, fluorogenic H-Leu-NHMec substrate, 1536-well (AID 1445); design: species or system Plasmodium falciparum 3D7, 3D7
T4 sequence (O96935 whole entry): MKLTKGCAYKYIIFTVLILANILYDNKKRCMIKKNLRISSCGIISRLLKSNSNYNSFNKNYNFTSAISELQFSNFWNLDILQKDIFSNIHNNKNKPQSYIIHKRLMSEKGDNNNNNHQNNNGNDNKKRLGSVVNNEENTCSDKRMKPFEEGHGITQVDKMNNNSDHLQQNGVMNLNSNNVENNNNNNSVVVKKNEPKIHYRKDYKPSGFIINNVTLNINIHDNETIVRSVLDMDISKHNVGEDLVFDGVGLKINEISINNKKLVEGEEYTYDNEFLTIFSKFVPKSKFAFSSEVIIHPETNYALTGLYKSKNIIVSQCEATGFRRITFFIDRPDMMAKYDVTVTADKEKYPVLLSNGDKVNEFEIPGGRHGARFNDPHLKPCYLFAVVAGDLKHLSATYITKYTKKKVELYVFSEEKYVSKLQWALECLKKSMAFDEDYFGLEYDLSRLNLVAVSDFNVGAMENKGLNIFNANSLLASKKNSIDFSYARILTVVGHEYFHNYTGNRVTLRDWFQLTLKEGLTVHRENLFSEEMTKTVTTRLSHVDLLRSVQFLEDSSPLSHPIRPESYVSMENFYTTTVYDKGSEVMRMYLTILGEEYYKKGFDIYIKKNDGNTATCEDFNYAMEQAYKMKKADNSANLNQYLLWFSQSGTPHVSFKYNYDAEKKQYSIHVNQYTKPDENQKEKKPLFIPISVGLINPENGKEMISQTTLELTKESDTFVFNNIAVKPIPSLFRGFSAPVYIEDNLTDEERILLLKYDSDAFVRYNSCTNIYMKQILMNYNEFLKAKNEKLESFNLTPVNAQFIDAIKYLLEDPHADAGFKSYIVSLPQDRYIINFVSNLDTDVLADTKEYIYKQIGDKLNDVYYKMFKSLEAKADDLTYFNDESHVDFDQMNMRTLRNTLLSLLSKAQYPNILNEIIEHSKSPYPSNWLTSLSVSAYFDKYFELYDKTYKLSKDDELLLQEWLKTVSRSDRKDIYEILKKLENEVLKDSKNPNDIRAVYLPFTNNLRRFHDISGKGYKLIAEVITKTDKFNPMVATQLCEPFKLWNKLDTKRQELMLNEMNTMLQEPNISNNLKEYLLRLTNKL

[15] = growth inhibition of yeast DHODH-expressing 3D7 parasites – SYBR Green, dry powder samples, dose response (AID 1159570); assay type: functional, cell-based;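 note: parasite growth measured after 72 hours of compound exposure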
[16] = P. falciparum Dd2 growth inhibitors, dose response, SYBR Green, cherry-picked samples (AID 1159567); assay type: functional, cell-based
[17] = Dd2 malaria parasite growth inhibition potency – SYBR Green, dry powder samples, dose response (AID 1159566); assay type: functional, cell-based;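 note: potency for growth inhibition with lower SYBR green DNA signal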
[18] = growth inhibition of PfATP4-mutant resistant parasites – NITD609-resistant line, SYBR Green, dry powder, dose response (AID 1159571); assay type: functional, cell-based;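 note: parasites synchronized at ring stage by sorbitol before testing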
[19] = HIV-1 Vif–A3G interaction blockers – biochemical, TR-FRET, GST-Vif 1-94, biotin-A3G peptide, dose response retest, primary screen (AID 1117319); assay type: functional;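 note: TR-FRET signal of purified GST-Vif binding a biotinylated A3G peptide; inhibitors lower the FRET signal by blocking Vif and A3G binding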
HeLa = assay: viability loss in HeLa cells – cell-based, 24 h, cherry-picked samples, cytotoxicity control, dose response (AID 504726); assay type: functional; settings: Homo sapiens;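 note: potency for cytotoxicity as loss of luminescence signal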

Sequence of Large T antigen (P03070 whole entry): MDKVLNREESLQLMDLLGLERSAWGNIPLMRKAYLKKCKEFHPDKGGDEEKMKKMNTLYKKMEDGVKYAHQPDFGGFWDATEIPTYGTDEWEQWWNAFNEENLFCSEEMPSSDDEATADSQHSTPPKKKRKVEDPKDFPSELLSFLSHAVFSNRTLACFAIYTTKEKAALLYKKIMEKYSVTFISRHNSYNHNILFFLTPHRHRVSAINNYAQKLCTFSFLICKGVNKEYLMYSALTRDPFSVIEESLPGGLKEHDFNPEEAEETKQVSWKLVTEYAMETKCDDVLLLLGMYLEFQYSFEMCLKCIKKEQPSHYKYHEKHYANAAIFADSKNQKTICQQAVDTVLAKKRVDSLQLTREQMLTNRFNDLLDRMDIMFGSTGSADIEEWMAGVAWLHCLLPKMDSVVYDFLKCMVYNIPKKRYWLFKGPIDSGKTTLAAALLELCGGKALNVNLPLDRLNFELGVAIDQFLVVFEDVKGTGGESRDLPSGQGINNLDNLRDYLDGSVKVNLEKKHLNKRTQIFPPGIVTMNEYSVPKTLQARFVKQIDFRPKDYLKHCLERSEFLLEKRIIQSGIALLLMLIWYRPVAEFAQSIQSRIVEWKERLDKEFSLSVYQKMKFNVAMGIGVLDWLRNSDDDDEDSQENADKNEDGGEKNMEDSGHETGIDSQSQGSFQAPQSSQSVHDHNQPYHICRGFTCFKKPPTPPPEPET

Question: For `CC(=O)Nc1nonc1-c1nc2ccccc2n1CCC(C)C`, which CC50 [1] is on record?
Answer: Its CC50 is > 40 µM (active).

Question: Which CC50 [1] does the source give for `Cc1cc2ccccn2c1C(=O)c1ccc([N+](=O)[O-])o1` here?
Answer: Its CC50 is 8.69 µM (active).

Question: What about the AC50 [2] of the same molecule?
Answer: Its AC50 is 2.84 µM (active).

Question: What about the AC50 [3] of the same molecule?
Answer: Its AC50 is 3.38 µM (active).

Question: For `COc1cc(-c2nc3cnccn3c2Nc2ccccc2)ccc1O`, which IC50 (Large T antigen) is on record?
Answer: Its IC50 is 5.05 µM (active).

Question: With `CN(C)S(=O)(=O)N(CC(=O)Nc1ccccc1)c1ccccc1` as the molecule, how does the IC50 [4] read?
Answer: The IC50 was > 109 µM (inactive).

Question: What about the IC50 [5] of the same molecule?
Answer: Its IC50 is > 83.3 µM (inactive).

Question: With `O=C(/C=C/c1ccc2c(c1)OCO2)Nc1nc2ccccc2s1` as the molecule, how does the CC50 [1] read?
Answer: The CC50 was > 40 µM (active).

Question: Which IC50 (Large T antigen) does the source give for `O=C1NC(=O)N(Cc2ccc(F)cc2)C(=O)/C1=C\c1ccoc1` here?
Answer: Its IC50 is 56.4 µM (active).

Question: Which results are given for `COc1ccc(C(=O)Nc2nc3ccccc3[nH]2)cc1`?
Answer: AC50 [6]: 34.6 µM (active); AC50 [7]: > 52 µM (inactive); AC50 [8]: 2.45 µM (active); AC50 [9]: 2.84 µM (active); AC50 [10]: > 52 µM (inactive)

Question: Which IC50 [11] does the source give for `CCC(CC)C(=O)Nc1ccc(S(=O)(=O)Nc2nccs2)cc1` here?
Answer: Its IC50 is 11.7 µM (not active).

Question: With `CCCCN(CC)CCNC(=O)CN(C)S(=O)(=O)c1ccc2c(c1)c(=O)n(C)c(=O)n2C` as the molecule, how does the IC50 [4] read?
Answer: The IC50 was > 109 µM (inactive).

Question: And the IC50 [5]?
Answer: The IC50 was > 83.3 µM (inactive).

Question: Which results are given for `Nc1ccc(Cn2ccc3c4c(N)nc(N)nc4ccc32)cc1`?
Answer: CC50 [12]: 49.5 µM (active); IC50 [13]: 77 µM (active)

Question: Which IC50 (H9c2) does the source give for `CC(C)(C)/N=C/c1c(O)ccc2oc3c(c12)CCCC3` here?
Answer: Its IC50 is > 79 µM (inactive).

Question: What about the EC50 [14] of the same molecule?
Answer: Its EC50 is > 53 µM (inactive).

Question: What does the source list for `COc1cc(/C=N/N2C(=O)CSC2=S)cc(Br)c1O`?
Answer: IC50 (Aminopeptidase N): 107 µM (active); IC50 (Large T antigen): 12.8 µM (active)

Question: Which AC50 [15] does the source give for `C[C@@H]1CN([C@H](C)CO)C(=O)c2cc(/C=C/c3ccccc3)cnc2O[C@H]1CN(C)C(=O)NC1CCCCC1` here?
Answer: The AC50 was 2.03 µM (active).

Question: And the AC50 [16]?
Answer: The AC50 was 2.73 µM (active).

Question: What about the AC50 [17] of the same molecule?
Answer: The AC50 was 1.06 µM (active).

Question: What about the AC50 [18] of the same molecule?
Answer: Its AC50 is 1.76 µM (active).

Question: Which IC50 [19] does the source give for `COc1ccc(OC)c(/C(O)=C/C(=O)C(=O)Nc2ccccc2OC)c1` here?
Answer: The IC50 was > 100 µM (active).

Question: With `CC1=[N+](C)N(c2ccccc2)C(=O)C1/N=C/C=C/c1ccccc1` (stereo not given) as the molecule, how does the AC50 (HeLa) read?
Answer: The AC50 was 308 µM (active).

Question: For `O=C(CCN1CCOCC1)c1ccc(N2CCCCC2)cc1`, which CC50 [1] is on record?
Answer: Its CC50 is 29.2 µM (active).
